Values of other authors as cited in US20100129295A1, “Compositions for preventing and/or treating gingivitis” (priority 2008, published 2010).
Values belong to the compound of their own block, whether it stands above or below them.

How the values were obtained:
[1] = test system: TNF-α induced cellular responses
TNF-α = TNF-α (Homo sapiens, UniProt P01375)
[2] = females taking supplements; 27 females with gingivitis compared with women without

Chain of TNF-α (P01375 whole entry, species assumed): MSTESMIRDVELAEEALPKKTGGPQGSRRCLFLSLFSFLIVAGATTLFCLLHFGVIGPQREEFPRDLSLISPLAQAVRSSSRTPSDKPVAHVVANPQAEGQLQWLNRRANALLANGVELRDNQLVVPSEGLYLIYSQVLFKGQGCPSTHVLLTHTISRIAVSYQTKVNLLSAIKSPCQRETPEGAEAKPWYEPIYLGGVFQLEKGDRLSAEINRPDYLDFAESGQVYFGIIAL

SMILES: Cc1oncc1C(=O)Nc1ccc(C(F)(F)F)cc1 [leflunomide]
- TNF-α induced cellular responses [1]: suppresses

- inhibition of TNF-α (TNF-α): inhibition
SMILES: Cc1cc(C(=O)Nc2ccc(Cl)cc2)no1 [UTL-5d]

SMILES: Cc1cc2nc3c(=O)[nH]c(=O)nc-3n(C[C@H](O)[C@H](O)[C@H](O)CO)c2cc1C [vitamin B2]
- risk of gingivitis [2]: reduced risk

SMILES: [Ca+2] [calcium]
- risk of gingivitis [2]: reduced risk

SMILES: C/C(O)=C(\C#N)C(=O)Nc1ccc(C(F)(F)F)cc1 [A 771726, teriflunomide]
- TNF-α and IL-1 from Kupffer cells (Kupffer cells): inhibits
